Where two headings read alike, the source gives them in different places. Blank lines part the entries; values can stand above or below the compound they belong to.
How the values were obtained:
[1] = system: CCRF-CEM; experiment: CCK-8 tumor cell proliferation, CCRF-CEM; type: cell-based, Human; set-up: IC50 for inhibiting the proliferation of tumor cells, CCRF-CEM: scale not given here; settings: for IC50 for inhibiting the proliferation of tumor cells, CCRF-CEM: 96 h; for IC50: Homo sapiens, Table 18, FAK inhibitor based, CCRF-CEM, read-out: IC50 inhibiting proliferation of tumor cells, CCRF-CEM
Experimental: (§1) The tumor cells used herein were cultured in a cell culture medium listed in table 4 at 37° C. in an incubator with 5% CO2. Prior to experimentation, all cells used were correctly identified by STR profiling, and tested negative for mycoplasma through routine screenings.
(§2) IC50 values of the compounds of the present disclosure (including the compounds in Tables 1 and 3, and compounds of examples) were measured using the Meilun Cell Counting Kit-8 kit from Dalian Meilun Biotech Co., Ltd. Assay details are as follows: tumor cells were seeded in a 96-well plate at a density listed in Table 5. After 24 h, 100 μL of the inoculated cells were treated with 0.5 μL of the compounds of the present disclosure (including the compounds in Tables 1 and 3, and compounds of examples) at 10 different successively decreasing concentrations (starting at the highest concentration of 10 μM; 5-fold serial dilutions). After the cells were treated with the compounds of the present disclosure for a period of time, the cell viability detection reagent was added to the culture medium for cell viability assessment according to the instructions provided with the CCK-8 kit. […] The growth inhibition of the compounds of the present disclosure on cells was plotted by Prism Graphpad software, and the IC50 values of the compounds of the present disclosure were calculated therefrom.

[2] = system: Kasumi-1; experiment: CCK-8 tumor cell proliferation, Kasumi-1; type: cell-based, Human; settings: 72 h
Experimental: as §1, §2

[3] = system: MM.1S; experiment: CCK-8 tumor cell proliferation, MM.1S; type: cell-based; settings: for IC50 for inhibiting the proliferation of tumor cells, MM.1S: 72 h; for IC50: Homo sapiens, MM1.S, Table 18, FAK inhibitor based, MM.1S, read-out: IC50 inhibiting proliferation of tumor cells, MM.1S
Experimental: as §1, §2

[4] = system: SR; experiment: CCK-8 tumor cell proliferation, SR; type: cell-based, Human; settings: Table 12, designed based on CDK9 inhibitors; 72 h
Experimental: as §1, §2

[5] = system: Mino; experiment: CCK-8 tumor cell proliferation, Mino; type: cell-based, Human; settings: for IC50 for inhibiting the proliferation of tumor cells, Mino: 72 h; for IC50: Homo sapiens, Table 18, FAK inhibitor based, Mino, read-out: IC50 inhibiting proliferation of tumor cells, Mino
Experimental: as §1, §2

[6] = system: MDA-MB-231; experiment: CCK-8 tumor cell proliferation, MDA-MB-231; type: cell-based, Human; settings: Homo sapiens; Table 18, FAK inhibitor based; MDA-MB-231; read-out: IC50 inhibiting proliferation of tumor cells, MDA-MB-231
Experimental: as §1, §2

[7] = system: SW620; experiment: CCK-8 tumor cell proliferation, SW620; type: cell-based, Human; settings: Homo sapiens, SW-620; Table 18, FAK inhibitor based; SW620; read-out: IC50 inhibiting proliferation of tumor cells, SW620
Experimental: as §1, §2

[8] = system: CAL-62; experiment: CCK-8 tumor cell proliferation, CAL-62; type: cell-based, Human; settings: Homo sapiens, CAL-62
Experimental: as §1, §2

[9] = system: PC-9; experiment: CCK-8 tumor cell proliferation, PC-9; type: cell-based, Human; settings: Homo sapiens; Table 18, FAK inhibitor based; PC-9; read-out: IC50 inhibiting proliferation of tumor cells, PC-9
Experimental: The tumor cells used herein were cultured in a cell culture medium listed in table 4 at 37° C. in an incubator with 5% CO2.
as §2, with “After” for “IC50 values of the compounds of the present disclosure (including the compounds in Tables 1 and 3, and compounds of examples) were measured using the Meilun Cell Counting Kit-8 kit from Dalian Meilun Biotech Co., Ltd. Assay details are as follows: tumor cells were seeded in a 96-well plate at a density listed in Table 5. After”

[10] = system: MM.1R; experiment: CCK-8 tumor cell proliferation, MM.1R; type: cell-based
Experimental: as §1, §2

[11] = system: Jurkat; experiment: CCK-8 tumor cell proliferation, Jurkat; type: cell-based, Human; settings: Homo sapiens
Experimental: as §1, §2

[12] = Table 16, designed based on BET inhibitors
[13] = Table 8, designed based on ER inhibitors
[14] = Table 18, FAK inhibitor based, read-out: IC50 inhibiting proliferation of tumor cells, CAL-62
[15] = Table 7, designed based on BTK inhibitors
[16] = Table 23, compared to Comparative Example compounds, read-out: Inhibitory activity (IC50, nM) against tumor cell proliferation, MM.1R
[17] = Table 23, compared to Comparative Example compounds, read-out: Inhibitory activity (IC50, nM) against tumor cell proliferation, Jurkat
[18] = Table 23, compared to Comparative Example compounds, read-out: Inhibitory activity (IC50, nM) against tumor cell proliferation, CAL-62

SMILES: Cc1sc2c(c1C)C(c1ccc(Cl)cc1)=N[C@@H](CC(=O)N1CCN(Cc3ccc4c(c3)CN(C3CCC(=O)NC3=O)C4=O)CC1)c1nnc(C)n1-2 (stereo partly drawn) [GT-02967, 3-(5-((4-(2-((S)-4-(4-chlorophenyl)-2,3,9-trimethyl-6H-thieno[3,2-f][1,2,4]triazolo[4,3-a][1,4]diazepin-6-yl)acetyl)piperazin-1-yl)methyl)-1-oxoisoindolin-2-yl)piperidine-2,6-dione]
- IC50 for inhibiting the proliferation of tumor cells, CCRF-CEM [1, 12]: A+
- IC50 for inhibiting the proliferation of tumor cells, Kasumi-1 [2, 12]: A+

SMILES: CC(C)(C)c1cnc(CSc2cnc(NC(=O)C3CCN(Cc4ccc5c(c4)CN(C4CCC(=O)NC4=O)C5=O)CC3)s2)o1 (stereo not shown) [GT-03242, N-(5-(((5-(tert-butyl)oxazol-2-yl)methyl)thio)thiazol-2-yl)-1-((2-(2,6-dioxopiperidin-3-yl)-1-oxoisoindolin-5-yl)methyl)piperidine-4-carboxamide]
- IC50 for inhibiting the proliferation of tumor cells, MM.1S ([3]; Table 12, designed based on CDK9 inhibitors): A+
- IC50 for inhibiting the proliferation of tumor cells, SR [4]: A+

SMILES: O=C1CCC(N2Cc3cc(CN4CCN(c5ccc(C(=C(CCCl)c6ccccc6)c6ccccc6)cc5)CC4)ccc3C2=O)C(=O)N1 (stereo not shown) [GT-03637, 3-(5-((4-(4-(4-chloro-1,2-diphenylbut-1-en-1-yl)phenyl)piperazin-1-yl)methyl)-1-oxoisoindolin-2-yl)piperidine-2,6-dione]
- IC50 for inhibiting the proliferation of tumor cells, CCRF-CEM [1, 13]: A+
- IC50 for inhibiting the proliferation of tumor cells, Kasumi-1 [2, 13]: A+
- IC50 for inhibiting the proliferation of tumor cells, Mino [5, 13]: A+

SMILES: CNC(=O)c1ccccc1Nc1cc(Nc2ccc(N3CCC(N(C)Cc4ccc5c(c4)CN(C4CCC(=O)NC4=O)C5=O)CC3)cc2OC)ncc1C(F)(F)F (stereo not shown) [GT-03679, 2-((2-((4-(4-(((2-(2,6-dioxopiperidin-3-yl)-1-oxoisoindolin-5-yl)methyl)(methyl)amino)piperidin-1-yl)-2-methoxyphenyl)amino)-5-(trifluoromethyl)pyridin-4-yl)amino)-N-methylbenzamide]
- IC50 [1]: 500 to 1000 nM
- IC50 [6]: < 50 nM
- IC50 [3]: 100 to 500 nM
- IC50 [7]: 100 to 500 nM
- IC50 [8, 14]: 50 to 100 nM

SMILES: NC(=O)c1ccc(C2CCN(Cc3ccc4c(c3)CN(C3CCC(=O)NC3=O)C4=O)CC2)nc1-c1ccc(Oc2ccccc2)cc1 (stereo not shown) [GT-03693, 6-(1-((2-(2,6-dioxopiperidin-3-yl)-1-oxoisoindolin-5-yl)methyl)piperidin-4-yl)-2-(4-phenoxyphenyl)nicotinamide]
- IC50 for inhibiting the proliferation of tumor cells, CCRF-CEM [1, 15]: A+
- IC50 for inhibiting the proliferation of tumor cells, MM.1S [3, 15]: A+
- IC50 for inhibiting the proliferation of tumor cells, Mino [5, 15]: A+

SMILES: CN(c1cccc(CNc2nc(Nc3ccc(C4CCN(Cc5ccc6c(c5)CN(C5CCC(=O)NC5=O)C6=O)CC4)cc3)ncc2C(F)(F)F)c1)S(C)(=O)=O (stereo not shown) [GT-03742, N-(3-(((2-((4-(1-((2-(2,6-dioxopiperidin-3-yl)-1-oxoisoindolin-5-yl)methyl)piperidin-4-yl)phenyl)amino)-5-(trifluoromethyl)pyrimidin-4-yl)amino)methyl)phenyl)-N-methylmethanesulfonamide]
- IC50 [6]: 1000 to 5000 nM
- IC50 [3]: 1000 to 5000 nM
- IC50 [8, 14]: 1000 to 5000 nM

SMILES: CS(=O)(=O)c1cccc(CNc2nc(Nc3ccc(N4CCN(Cc5ccc6c(c5)CN(C5CCC(=O)NC5=O)C6=O)CC4)cc3)ncc2C(F)(F)F)c1 (stereo not shown) [GT-03792, 3-(5-((4-(4-((4-((3-(methylsulfonyl)benzyl)amino)-5-(trifluoromethyl)pyrimidin-2-yl)amino)phenyl)piperazin-1-yl)methyl)-1-oxoisoindolin-2-yl)piperidine-2,6-dione]
- IC50 [1]: < 50 nM
- IC50 [6]: < 50 nM
- IC50 [3]: < 50 nM
- IC50 [5]: 100 to 500 nM
- IC50 [7]: < 50 nM
- IC50 [9]: 1000 to 5000 nM
- IC50 [8, 14]: < 50 nM

More lines, now with the values ahead:

- IC50 [1]: < 50 nM
- IC50 [6]: < 50 nM
- IC50 [3]: < 50 nM
- IC50 [5]: 50 to 100 nM
- IC50 [7]: < 50 nM
- IC50 [8, 14]: < 50 nM
SMILES: CS(=O)(=O)c1cccc(CNc2nc(Nc3ccc(N4CCN(Cc5ccc6c(c5F)CN(C5CCC(=O)NC5=O)C6=O)CC4)cc3)ncc2C(F)(F)F)c1 (stereo not shown) [GT-03817, 3-(4-fluoro-5-((4-(4-((4-((3-(methylsulfonyl)benzyl)amino)-5-(trifluoromethyl)pyrimidin-2-yl)amino)phenyl)piperazin-1-yl)methyl)-1-oxoisoindolin-2-yl)piperidine-2,6-dione]

- IC50 [1]: < 50 nM
- IC50 [6]: < 50 nM
- IC50 [3]: < 50 nM
- IC50 [5]: < 50 nM
- IC50 [7]: < 50 nM
- IC50 [8, 14]: < 50 nM
SMILES: CS(=O)(=O)c1cccc(CNc2nc(Nc3ccc(N4CCN(Cc5cc6c(cc5F)C(=O)N(C5CCC(=O)NC5=O)C6)CC4)cc3)ncc2C(F)(F)F)c1 (stereo not shown) [GT-03818, 3-(6-fluoro-5-((4-(4-((4-((3-(methylsulfonyl)benzyl)amino)-5-(trifluoromethyl)pyrimidin-2-yl)amino)phenyl)piperazin-1-yl)methyl)-1-oxoisoindolin-2-yl)piperidine-2,6-dione]

- IC50 [10, 16]: 5000 to 10000 nM
- IC50 [11, 17]: 100 to 500 nM
- IC50 [8, 18]: 5000 to 10000 nM
SMILES: CCc1cc2c(cc1N1CCC(N3CCN(CCCc4ccc5c(c4)CN(C4CCC(=O)NC4=O)C5=O)CC3)CC1)C(C)(C)c1[nH]c3cc(C#N)ccc3c1C2=O (stereo not shown) [GT-04457, 8-(4-(4-(3-(2-(2,6-dioxopiperidin-3-yl)-1-oxoisoindolin-5-yl)propyl)piperazin-1-yl)piperidin-1-yl)-9-ethyl-6,6-dimethyl-11-oxo-6,11-dihydro-5H-benzo[b]carbazole-3-carbonitrile]

- IC50 [10, 16]: 1000 to 5000 nM
- IC50 [11, 17]: 100 to 500 nM
- IC50 [8, 18]: 1000 to 5000 nM
SMILES: CCc1cc2c(cc1N1CCC(N3CCN(CCc4ccc5c(c4)CN(C4CCC(=O)NC4=O)C5=O)CC3)CC1)C(C)(C)c1[nH]c3cc(C#N)ccc3c1C2=O (stereo not shown) [GT-04512, 8-(4-(4-(2-(2-(2,6-dioxopiperidin-3-yl)-1-oxoisoindolin-5-yl)ethyl)piperazin-1-yl)piperidin-1-yl)-9-ethyl-6,6-dimethyl-11-oxo-6,11-dihydro-5H-benzo[b]carbazole-3-carbonitrile]

- IC50 [10, 16]: 100 to 500 nM
- IC50 [11, 17]: 1000 to 5000 nM
- IC50 [8, 18]: 1000 to 5000 nM
SMILES: COc1cc(N2CCC(N(C)CCc3ccc4c(c3)CN(C3CCC(=O)NC3=O)C4=O)CC2)ccc1Nc1ncc(Cl)c(Nc2ccccc2P(C)(C)=O)n1 (stereo not shown) [GT-04513, 3-(5-(2-((1-(4-((5-chloro-4-((2-(dimethylphosphoryl)phenyl)amino)pyrimidin-2-yl)amino)-3-methoxyphenyl)piperidin-4-yl)(methyl)amino)ethyl)-1-oxoisoindolin-2-yl)piperidine-2,6-dione]

- IC50 ([10]; Table 19, IRAK4 inhibitor based, read-out: IC50 inhibiting proliferation of tumor cells, MM.1R): 50 to 100 nM
- IC50 ([11]; Table 19, IRAK4 inhibitor based, read-out: IC50 inhibiting proliferation of tumor cells, Jurkat): < 50 nM
- IC50 ([8]; Table 19, IRAK4 inhibitor based, read-out: IC50 inhibiting proliferation of tumor cells, CAL-62): 100 to 500 nM
SMILES: CC(C)(O)c1cc2nc(C3CCN(Cc4ccc5c(c4F)CN(C4CCC(=O)NC4=O)C5=O)CC3)oc2cc1NC(=O)c1cccc(C(F)(F)F)n1 (stereo not shown) [GT-04518, N-(2-(1-((2-(2,6-dioxopiperidin-3-yl)-4-fluoro-1-oxoisoindolin-5-yl)methyl)piperidin-4-yl)-5-(2-hydroxypropan-2-yl)benzo[d]oxazol-6-yl)-6-(trifluoromethyl)picolinamide]

From patent publication US20260199323A1, “LIGAND COMPOUNDS FOR E3 UBIQUITIN LIGASE, PROTEIN DEGRADERS DEVELOPED ON BASIS OF LIGAND COMPOUNDS, AND USES THEREOF” (GLUETACS THERAPEUTICS (SHANGHAI) CO., LTD., priority 2021, published 2026)
